Test results published in PubChem BioAssay (NCI).
Several values for one entry are separate records, joined by “and”; a condition that tells them apart may be missing. Equal values may be shown once.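 96-well plates; 48 h exposure; 5 concentrations. Endpoints by linear interpolation between flanking doses. Not reached: highest tested concentration assigned. GI50 = concentration required for 50% inhibition of growth. TGI: total growth inhibition.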 Where a SMILES comes first, the peptide text is derived from it. [ ]: non-standard residue; d: D form. NMeY = CN[C@@H](Cc1ccc(O)cc1)C(=O)O; dNMeF = CN[C@H](Cc1ccccc1)C(=O)O; Sar = CNCC(=O)O

Columns and labels:
Test in all cases: NCI-60 cell line screen, 48 h
[1] = tested on: DU-145 prostate
[2] = tested on: PC-3 prostate
[3] = tested on: HS 578T breast

Compound | GI50 [1] [µM] | TGI [1] | GI50 [2] | TGI [2] | GI50 [3] [µM] | TGI [3] [µM]
CO/N=C(/COc1c(-c2ccccc2)oc2ccccc2c1=O)c1ccc(OC)cc1 | > 100 | > 100 µM | > 100 µM | > 100 µM | > 100 | > 100
O=C(O)C[O][Sb][O]CC(=O)O | > 100 | > 100 µM | > 100 µM | > 100 µM | > 100 | > 100
COc1ccc(-c2cc(-c3cn[nH]c3-c3ccccn3)ccn2)cc1 | > 25 | > 25 µM | > 25 µM | > 25 µM | > 25 | > 25
Cc1cc2c3ccccc3ccc2[n+]2ccccc12 | 9.02 | 40.4 µM | 3.38 µM | 32.1 µM | 2.6 | 17.2
N#Cc1cccc(/C=C(/C(=O)c2ccccc2)c2ccccc2)c1 | 3.36 | 10.2 µM | 6.27 µM | 36.6 µM | 2.9 | 33.6
Cc1cccc(NC(=O)CCl)c1 | – | > 10 µM | – | > 10 µM | – | > 10
NC(CSc1nc2ccccn2c1[N+](=O)[O-])C(=O)O (stereo not given) | – | > 100 µM | – | > 100 µM | – | > 100
COc1ccc2[nH]c(=O)c(/C=C/C(=O)/C=C/c3ccc(O)c(OC)c3)cc2c1 | 1.69 | 3.5 µM | 1.83 µM | 4.94 µM | 3.81 | > 100
c1ccc(-c2nnc(Nc3ccc4c(c3)OCCO4)o2)c(NCc2ccncc2)c1 | 0.0363 | 0.566 µM | 0.0301 µM | > 52.7 µM | 0.0281 | > 69.4
CCCCCCCCCCCC[n+]1ccccc1 | 2.21 | 11.6 µM | 0.374 µM | 2.76 µM | 1.87 | 5.87
C#C[C@@]1(O)[C@@H](CO)O[C@@H](n2ccc3c(N)ncnc32)[C@@H]1O | 0.563 | 6.56 µM | 0.808 µM | 3.54 µM | 4.67 | > 100
CN(C)CCNC(=O)Cn1ccc(=O)c2ccc([N+](=O)[O-])cc21 | – | > 100 µM | – | > 100 µM | – | > 100
Nc1ccn(C2CC(O)C(CO)O2)c(=O)n1 (stereo not given) | > 5000 | > 5000 µM | > 5000 µM | > 5000 µM | > 5000 | > 5000
COc1cc2nc(N3CCCC3)nc(Nc3ccccc3)c2cc1OC | 1.62 | 3.07 µM | 1.71 µM | 3.45 µM | 1.97 | 4.45
O=C(O)c1ccc(NCc2nc3cc4ccccc4cc3[nH]2)cc1 | – | > 100 µM | – | > 100 µM | – | > 100
COc1ccc(/C=C/C(=O)c2ccc3cc(OC)c(OC)cc3c2)cc1OC | 4.01 | 15.7 µM | 3.08 µM | 13.3 µM | 3.77 | 41.2
CC[C@H](C)[C@@H]1NC(=O)[C@H](Cc2ccc(O)cc2)N(C)C(=O)[C@H](Cc2ccccc2)NC(=O)CN(C)C(=O)[C@@H]2CCCN2C(=O)[C@@H](Cc2ccccc2)N(C)C(=O)[C@H](CC(C)C)NC1=O (cyclo(F[NMeY]IL[dNMeF]P[Sar])) | 0.205 | 10.9 µM | 0.28 µM | 6.21 µM | 0.137 | 1.25
Cc1ccc2c(Nc3cccc(Cl)c3F)ncc(NC(=O)c3csc4c(N)ncnc34)c2c1 | > 100 | > 100 µM | > 100 µM | > 100 µM | > 100 | > 100
CNNC(=N\S(=O)(=O)c1cc(C(=O)Nc2ccc(Cl)cc2)c(Cl)cc1SCc1ccccc1)/N=C/c1ccc([N+](=O)[O-])s1 | > 20.3 | > 100 µM | > 100 µM | > 100 µM | 38.2 | > 100
O=Cc1ccc(Oc2c3ccccc3nc3occc23)cc1 | 17.6 | 43.7 µM | 19.5 µM | 58.6 µM | 13.4 | 51.6
CCN(CC)CCCOc1cc(O)c2c(=O)cc(-c3ccccc3)oc2c1 | 10.2 | 21.8 µM | 10.8 µM | 25.3 µM | 10.2 | 26

Compound | GI50 [1] [µM] | TGI [1] | GI50 [2] | TGI [2] | GI50 [3] [µM] | TGI [3] [µM]
O=C1c2cc3c(cc2[C@@H]2[C@H]1c1ccc([N+](=O)[O-])cc1C(=O)N2CCCCl)OCO3 | < 0.01 | – | < 0.01 µM | > 44.5 µM | 0.174 | 61.5
Cc1ncc(C(=O)Nc2ccc(CN3CCN(C)CC3)c(C(F)(F)F)c2)cc1C#Cc1cnc(N)c2ncccc12 | 0.18 | 2.08 µM | 1.22 µM | 2.8 µM | 0.23 | 4.69
COC(=O)c1ccc2c(c1)C(=O)c1c-2n(CCCN)c(=O)c2cc([N+](=O)[O-])ccc12 | < 0.0159 | 0.391 µM | < 0.0373 µM | 1.49 µM | 0.422 | 1.15
Nc1c(C(=O)c2cccc(CCC3(O)CCCC3)c2)cnn1-c1ccc(F)cc1 | > 21.1 | > 25 µM | 8.98 µM | > 25 µM | 12.7 | > 25
S=C=NCc1ccccc1 | – | > 41.2 µM | – | 19.8 µM | – | 53.6
C[C@]12CCC3c4ccc(O)cc4CCC3C1Cc1ccc(O)cc12 (stereo not given in full) | 11.5 | 28.5 µM | 7.25 µM | 22.4 µM | 5.87 | 42.6
O=C(Nc1ccccc1)NS(=O)(=O)c1ccc(N2N=C3c4ccccc4CC3C2c2ccccn2)cc1 (stereo not given) | 36.2 | > 100 µM | 36.6 µM | > 100 µM | 40.7 | > 100
O=C(O)CCCSc1nc2ccccc2s1 | – | > 100 µM | – | > 100 µM | – | > 100
CC[C@H](C)[C@H](NC(=O)Nc1ccccc1)C(=O)N(C)[C@H](C[C@@H](OC(C)=O)c1nc(C(=O)N[C@@H](Cc2ccccc2)C[C@H](C)C(=O)OC)cs1)C(C)C | 3.94 | > 100 µM | 3.47 µM | > 100 µM | 2.47 | 8.73
CO[C@H]1C[C@@H]2CC[C@@H](C)[C@@](O)(O2)C(=O)C(=O)N2CCCC[C@H]2C(=O)O[C@H]([C@H](C)C[C@@H]2CC[C@@H](OP(C)(C)=O)[C@H](OC)C2)CC(=O)[C@H](C)/C=C(\C)[C@@H](O)[C@@H](OC)C(=O)[C@H](C)C[C@H](C)/C=C/C=C/C=C/1C | 10.4 | 22.4 µM | < 0.0419 µM | 18.8 µM | – | 37.1
CC1(C)CC(=O)c2c(ccc(C(=O)C[C@H](N)CO)c2N)O1 | – | 17.5 µM and > 33.3 µM | 10.6 µM and 5.7 µM | 17.5 µM and > 33.3 µM | > 33.3 | > 33.3
CN(C)C(=O)c1cc2cnc(Nc3ccc(-c4csc5c(=O)cc(N6CCNCC6)oc45)cc3)nc2n1C1CCCC1 | 1.01 | 2.5 µM | 0.677 µM | 4.93 µM | 0.943 | 4.39
COc1cc2ccnc3c2c(c1OC)-c1ccc(=O)ccc1-3 | 28.8 | > 100 µM | 29.7 µM | > 100 µM | 36.6 | > 100
O=C(NC(=S)NNC(=S)NNc1ccccc1)c1ccccc1 | 44.1 | > 100 µM | – | – | 1.55 | > 100
ICCC(c1ccccc1)(c1ccccc1)c1ccccc1 | 10.1 | 21.6 µM | 4.32 µM | 19.4 µM | – | –
COc1ccc2c(c1)sc1nc(-c3ccccc3)c(-c3ccc(O)c(OC)c3)n12 | 35.4 | > 100 µM | 26.3 µM | > 100 µM | > 100 | > 100
C[C@H]1[C@H](C)CC[C@]2(C(=O)O)CC[C@]3(C)C(=CC[C@@H]4[C@@]5(C)CC[C@H](OC(=O)/C=C/c6ccc(O)cc6)C(C)(C)[C@@H]5CC[C@]43C)[C@H]12 | 2.32 | 13 µM | 6.94 µM | 24.6 µM | 2.81 | 8.8
O=C(OCC1OC(OC(=O)c2cc(O)c(O)c(OC(=O)c3cc(O)c(O)c(O)c3)c2)C(OC(=O)c2cc(O)c(O)c(OC(=O)c3cc(O)c(O)c(O)c3)c2)C(OC(=O)c2cc(O)c(O)c(OC(=O)c3cc(O)c(O)c(O)c3)c2)C1OC(=O)c1cc(O)c(O)c(OC(=O)c2cc(O)c(O)c(O)c2)c1)c1cc(O)c(O)c(OC(=O)c2cc(O)c(O)c(O)c2)c1 (stereo not given) | 14.8 | > 50 µM | 10.1 µM | > 50 µM | – | –
O=C(NNc1ccccc1)OCc1ccccc1 | 75.5 | > 100 µM | 5.35 µM | > 100 µM | 70.2 | > 100
Nc1nc(N)c2c(ccc3nccc32)[nH]1 | 8.61 | 57.4 µM | 1.63 µM | > 64.2 µM | > 21.8 | > 64.7
CCOC(=O)c1ccc(Nc2sc(C(=O)c3cccc([N+](=O)[O-])c3)c(N)c2C#N)cc1 | 0.184 | 21.1 µM | 0.179 µM | > 32.1 µM | 0.129 | > 39.1
